EC50 data for 26 compounds are collected here from patent US20250333424A1, “ANTIVIRAL COMPOUNDS” (Gilead Sciences, Inc., priority 2024, published 2025).

Each structure is given as a SMILES string.

The assay concerns monocytic THP1 cells infected with HIV VSV-G pseudotyped GFP-NEF reporter virus. Briefly: cells. It counts as cell-based. To be noted: Human immunodeficiency virus 1, THP-1, 24 h.
Compound `Cc1cc(/C=C/C#N)cc(C)c1Oc1nc(NC23CC(C#N)(C2)C3)nc2nn(C)c(I)c12` [Compound 87, (E)-3-((4-(4-(2-cyanovinyl)-2,6-dimethylphenoxy)-3-iodo-2-methyl-2H-pyrazolo[3,4-d]pyrimidin-6-yl)amino)bicyclo[1.1.1]pentane-1-carbonitrile] registered an EC50 of 25.1 nM.

The compound `Cc1cc(/C=C/C#N)cc(C)c1Oc1nc(NC23CC(C#N)(C2)C3)nc2nn3c(c12)CCC3` [Example 257, (E)-3-((4-(4-(2-cyanovinyl)-2,6-dimethylphenoxy)-6,7-dihydro-5H-pyrrolo[1′,2′:1,5]pyrazolo[3,4-d]pyrimidin-2-yl)amino)bicyclo[1.1.1]pentane-1-carbonitrile] registered a concentration giving a half-maximal response (EC50) of 22.8 nM.

Consider `Cc1cc(/C=C/C#N)cc(C)c1Oc1nc(NC23CC(C#N)(C2)C3)nc2c1C1(C)OCC(C)(C)CN1C2=O` (centres unmarked) [Compound 197, (E)-3-((4-(4-(2-cyanovinyl)-2,6-dimethylphenoxy)-4b,7,7-trimethyl-10-oxo-4b,7,8,10-tetrahydro-6H-pyrimido[5′,4′:3,4]pyrrolo[2,1-b][1,3]oxazin-2-yl)amino)bicyclo[1.1.1]pentane-1-carbonitrile], for which it took 97.3 nM to reach a half-maximal effect (EC50).

In turn, `Cc1cc(/C=C/C#N)cc(C)c1Oc1nc(NC23CC(C#N)(C2)C3)nc2nc(C3CCOCC3)[nH]c12` [Compound 52, (E)-3-((6-(4-(2-cyanovinyl)-2,6-dimethylphenoxy)-8-(tetrahydro-2H-pyran-4-yl)-7H-purin-2-yl)amino)bicyclo[1.1.1]pentane-1-carbonitrile] displayed an EC50 of 137 nM.

For the compound `CCOc1cc(/C=C/C#N)cc(Cl)c1Oc1nc(NC23CC(C#N)(C2)C3)nc2[nH]nc(C)c12` [Compound 3, (E)-3-((4-(2-chloro-4-(2-cyanovinyl)-6-ethoxyphenoxy)-3-methyl-11H-pyrazolo[3,4-d]pyrimidin-6-yl)amino)bicyclo[1.1.1]pentane-1-carbonitrile], a half-maximal response (EC50) required 29.6 nM.

Compound `Cc1cc(/C=C/C#N)cc(C)c1Oc1nc(NC23CC(C#N)(C2)C3)nc2nc3n(c12)CC(F)(F)CO3` [Compound 189, (E)-3-((4-(4-(2-cyanovinyl)-2,6-dimethylphenoxy)-7,7-difluoro-7,8-dihydro-6H-[1,3]oxazino[2,3-f]purin-2-yl)amino)bicyclo[1.1.1]pentane-1-carbonitrile] returned an EC50 of 109 nM.

For the compound `Cc1cc(/C=C/C#N)cc(C)c1Oc1nc(NC23CC(C#N)(C2)C3)nc2c1C1(C)O[C@H](C)CN1C2=O` (stereo partly drawn) [Compound 308, 3-(((6R)-4-(4-((E)-2-cyanovinyl)-2,6-dimethylphenoxy)-4b,6-dimethyl-9-oxo-4b,6,7,9-tetrahydrooxazolo[3′,2′:1,5]pyrrolo[3,4-d]pyrimidin-2-yl)amino)bicyclo[1.1.1]pentane-1-carbonitrile], the concentration giving a half-maximal response (EC50) turned out to be 60.1 nM.

`Cc1cc(/C=C/C#N)cc(C)c1Oc1nc(NC23CC(C#N)(C2)C3)nc2nc(Nc3c(C)noc3C)[nH]c12` [Compound 67, (E)-3-((6-(4-(2-cyanovinyl)-2,6-dimethylphenoxy)-8-((3,5-dimethylisoxazol-4-yl)amino)-7H-purin-2-yl)amino)bicyclo[1.1.1]pentane-1-carbonitrile]: the response was half-maximal at 231 nM (EC50).

Compound `Cc1cc(/C=C/C#N)cc(C)c1Oc1nc(NC23CC(C#N)(C2)C3)nc2c1c(C(F)F)nn2C` [Compound 93, (E)-3-((4-(4-(2-cyanovinyl)-2,6-dimethylphenoxy)-3-(difluoromethyl)-1-methyl-1H-pyrazolo[3,4-d]pyrimidin-6-yl)amino)bicyclo[1.1.1]pentane-1-carbonitrile] displayed an EC50 of 37.7 nM.

For `Cc1cc(/C=C/C#N)cc(C)c1Oc1nc(NC23CC(C#N)(C2)C3)nc2c1C(C)N(CCc1cn(C)cn1)C2=O` (centres unmarked) [Example 209, (E)-3-((4-(4-(2-cyanovinyl)-2,6-dimethylphenoxy)-5-methyl-6-(2-(1-methyl-1H-imidazol-4-yl)ethyl)-7-oxo-6,7-dihydro-5H-pyrrolo[3,4-d]pyrimidin-2-yl)amino)bicyclo[1.1.1]pentane-1-carbonitrile], the EC50 was determined as 57.7 nM.

Compound `CCc1nc2nc(NC34CC(C#N)(C3)C4)nc(Oc3c(C)cc(/C=C/C#N)cc3C)c2n1C(F)F` [Compound 17, (E)-3-((6-(4-(2-cyanovinyl)-2,6-dimethylphenoxy)-7-(difluoromethyl)-8-ethyl-7H-purin-2-yl)amino)bicyclo[1.1.1]pentane-1-carbonitrile] came in with an EC50 of 21.4 nM.

In the case of `Cc1cc(/C=C/C#N)cc(C)c1Oc1nc(NC23CC(C#N)(C2)C3)nc2nn(C)nc12` [Compound 82, (E)-3-((7-(4-(2-cyanovinyl)-2,6-dimethylphenoxy)-2-methyl-2H-[1,2,3]triazolo[4,5-d]pyrimidin-5-yl)amino)bicyclo[1.1.1]pentane-1-carbonitrile], the EC50 was found to be 79 nM.

In the case of `Cc1cc([C@H]2C[C@@H]2C#N)cc(C)c1Oc1nc(NC23CC(C#N)(C2)C3)nc2nn(C)cc12` (single isomer, unassigned) [Compound 133], a half-maximal effect (EC50) was put at 511 nM.

In turn, `CCOc1nc2nc(NC34CC(C#N)(C3)C4)nc(Oc3c(C)cc(/C=C/C#N)cc3C)c2n1C` [Compound 298, (E)-3-((6-(4-(2-cyanovinyl)-2,6-dimethylphenoxy)-8-ethoxy-7-methyl-7H-purin-2-yl)amino)bicyclo[1.1.1]pentane-1-carbonitrile] yielded an EC50 of 87.3 nM.

In the case of `Cc1cc(/C=C/C#N)cc(C)c1Oc1nc(NC23CC(C#N)(C2)C3)nc2c1C1(C)OCC[C@@H](C)N1C2=O` (stereo partly drawn) [Compound 272, 3-(((8R)-4-(4-((E)-2-cyanovinyl)-2,6-dimethylphenoxy)-4b,8-dimethyl-10-oxo-4b,7,8,10-tetrahydro-6H-pyrimido[5′,4′:3,4]pyrrolo[2,1-b][1,3]oxazin-2-yl)amino)bicyclo[1.1.1]pentane-1-carbonitrile], the half-maximal effective concentration (EC50) turned out to be 68.3 nM.

Regarding `Cc1cc(/C=C/C#N)cc(C)c1Oc1nc(NC23CC(C#N)(C2)C3)nc2c1[C@@H](C)N(CC(F)F)C2=O` [Example 239, (R,E)-3-((4-(4-(2-cyanovinyl)-2,6-dimethylphenoxy)-6-(2,2-difluoroethyl)-5-methyl-7-oxo-6,7-dihydro-5H-pyrrolo[3,4-d]pyrimidin-2-yl)amino)bicyclo[1.1.1]pentane-1-carbonitrile], the EC50 worked out at 18.5 nM.

Take `Cc1cc(/C=C/C#N)cc(C)c1Oc1nc(NC23CC(C#N)(C2)C3)nc2nc(-c3cc[nH]n3)[nH]c12` [Compound 63, (E)-3-((6-(4-(2-cyanovinyl)-2,6-dimethylphenoxy)-8-(1H-pyrazol-3-yl)-7H-purin-2-yl)amino)bicyclo[1.1.1]pentane-1-carbonitrile]: the concentration for a half-maximal effect (EC50) was 62.8 nM.

`Cc1cc(/C=C/C#N)cc(C)c1Oc1nc(NC23CC(C#N)(C2)C3)nc2c1[C@H](C)NC2=O` [Compound 138, 3-[[(5S)-4-[4-[(E)-2-cyanovinyl]-2,6-dimethyl-phenoxy]-5-methyl-7-oxo-5,6-dihydropyrrolo[3,4-d]pyrimidin-2-yl]amino]bicyclo[1.1.1]pentane-1-carbonitrile] showed an EC50 of 18.3 nM.

Compound `Cc1cc(/C=C/C#N)cc(C)c1Oc1nc(NC23CC(C#N)(C2)C3)nc2nc(-c3ccn(C)n3)n(C(F)F)c12` [Compound 177, (E)-3-((6-(4-(2-cyanovinyl)-2,6-dimethylphenoxy)-7-(difluoromethyl)-8-(1-methyl-1H-pyrazol-3-yl)-7H-purin-2-yl)amino)bicyclo[1.1.1]pentane-1-carbonitrile] had an EC50 of 45.3 nM.

`Cc1cc(/C=C/C#N)cc(C)c1Oc1nc(NC23CC(C#N)(C2)C3)nc2nn(C3CCOCC3)cc12` [Compound 127, 3-[[4-[4-[(E)-2-cyanovinyl]-2,6-dimethyl-phenoxy]-2-tetrahydropyran-4-yl-pyrazolo[3,4-d]pyrimidin-6-yl]amino]bicyclo[11.1.1]pentane-1-carbonitrile]: the response was half-maximal at 149 nM (EC50).

The compound `Cc1cc(/C=C/C#N)cc(C)c1Oc1nc(NC23CC(C#N)(C2)C3)nc2c1n(C(F)F)c(=O)n2C(F)F` [Compound 28, (E)-3-((6-(4-(2-cyanovinyl)-2,6-dimethylphenoxy)-7,9-bis(difluoromethyl)-8-oxo-8,9-dihydro-7H-purin-2-yl)amino)bicyclo[1.1.1]pentane-1-carbonitrile] showed an EC50 of 44 nM.

As to `Cc1cc(/C=C/C#N)cc(C)c1Oc1nc(NC23CC(C#N)(C2)C3)nc2c1[C@H](C)N(CC(F)F)C2=O` [Example 240, (S,E)-3-((4-(4-(2-cyanovinyl)-2,6-dimethylphenoxy)-6-(2,2-difluoroethyl)-5-methyl-7-oxo-6,7-dihydro-5H-pyrrolo[3,4-d]pyrimidin-2-yl)amino)bicyclo[1.1.1]pentane-1-carbonitrile], the midpoint of the response, the EC50, lay at 35.2 nM.

With `Cc1cc(/C=C/C#N)cc(C)c1Oc1nc(NC23CC(C#N)(C2)C3)nc2nc(-c3cncnc3)[nH]c12` [Compound 72, (E)-3-((6-(4-(2-cyanovinyl)-2,6-dimethylphenoxy)-8-(pyrimidin-5-yl)-7H-purin-2-yl)amino)bicyclo[1.1.1]pentane-1-carbonitrile], the EC50 is 308 nM.

In turn, `Cc1cc(/C=C/C#N)cc(C)c1Oc1nc(NC23CC(C#N)(C2)C3)nc2c1[C@@]1(C)O[C@@H]3CC[C@@H]3N1C2=O` (single isomer, unassigned) [Compound 283] displayed an EC50 of 44.8 nM.

In turn, `Cc1cc(/C=C/C#N)cc(C)c1Oc1nc(NC23CC(C#N)(C2)C3)nc2c1C(C)N(c1cn(C)nc1C)C2=O` (centres unmarked) [Example 222, (E)-3-((4-(4-(2-cyanovinyl)-2,6-dimethylphenoxy)-6-(1,3-dimethyl-1H-pyrazol-4-yl)-5-methyl-7-oxo-6,7-dihydro-5H-pyrrolo[3,4-d]pyrimidin-2-yl)amino)bicyclo[1.1.1]pentane-1-carbonitrile] displayed a 50% effective concentration (EC50) of 70.7 nM.

For `Cc1cc(/C=C/C#N)cc(C)c1Oc1nc(NC23CC(C#N)(C2)C3)nc2c1C(C)(O)N(CC(F)F)C2=O` (centres unmarked) [Example 238, (E)-3-((4-(4-(2-cyanovinyl)-2,6-dimethylphenoxy)-6-(2,2-difluoroethyl)-5-hydroxy-5-methyl-7-oxo-6,7-dihydro-5H-pyrrolo[3,4-d]pyrimidin-2-yl)amino)bicyclo[1.1.1]pentane-1-carbonitrile], the response was half-maximal at 92.4 nM (EC50).
